{"source": "ChEMBL document CHEMBL5209580", "about": "“Flow cytometry transport assay for SLC2A3 using HEK293 JumpIN TRex SLC2A3 WT-OE cells” (2022)", "target": "T1, Solute carrier family 2, facilitated glucose transporter member 3 (Homo sapiens, UniProt P11169)", "T1 sequence (P11169 whole entry)": "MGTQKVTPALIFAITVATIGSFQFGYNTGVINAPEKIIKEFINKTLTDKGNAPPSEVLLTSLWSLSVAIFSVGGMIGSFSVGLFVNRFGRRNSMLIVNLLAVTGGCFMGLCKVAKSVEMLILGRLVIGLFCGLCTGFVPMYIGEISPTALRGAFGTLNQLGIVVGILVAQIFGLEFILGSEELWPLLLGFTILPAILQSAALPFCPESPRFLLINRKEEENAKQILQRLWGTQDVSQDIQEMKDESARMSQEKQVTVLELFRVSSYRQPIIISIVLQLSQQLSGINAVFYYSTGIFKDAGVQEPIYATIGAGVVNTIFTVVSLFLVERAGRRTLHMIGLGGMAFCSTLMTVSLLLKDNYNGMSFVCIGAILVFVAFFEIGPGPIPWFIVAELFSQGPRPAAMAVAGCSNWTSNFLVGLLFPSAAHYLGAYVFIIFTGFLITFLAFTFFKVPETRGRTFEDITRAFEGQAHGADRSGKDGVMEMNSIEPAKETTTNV", "experiment": "Inhibition of the Glucose Transporter (GLUT3, SLC2A3) as assessed by a FRET based flow cytometry assay using a genetically-encoded biosensor for measuring free glucose (FLII12Pglu-700uDelta6) in HEK293 JumpIN TRex SLC2A3 WT-OE cells (PubChem AID: 1794827)", "type": "functional, cell-based", "data": [{"smiles": "O=C(Oc1cccc(F)c1OC(=O)c1cccc(O)c1)c1cccc(O)c1", "values": [{"measurement": "IC50", "value": "> 10", "unit": "µM"}]}]}
